From article PMC7725003, “Systematically Studying the Optimal Amino Acid Distribution Patterns of the Amphiphilic Structure by Using the Ultrashort Amphiphiles” (Frontiers in Microbiology, 2020)
Where no end group is shown, it is not given here.

Key:
E. coli 25922 = assay type: cell-based, Escherichia coli; conditions: 25922, 24 h
How it was run: (§1)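 MIC = lowest peptide concentration giving 95% growth inhibition (A492) after 24 h at 37°C in MHB, inoculum 0.5–1 × 10^6 CFU mL^–1. Peptides serially diluted in 0.2% BSA. MBC = lowest concentration killing >99.9% of cells on overnight agar plating.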

E. coli O78 = assay type: cell-based, Escherichia coli; conditions: O78, 24 h
How it was run: as §1

E. coli UB1005 = assay type: cell-based, Escherichia coli; conditions: UB1005, 24 h
How it was run: as §1

S. typhimurium 14028 = assay type: cell-based, Salmonella typhimurium; conditions: 14028, 24 h
How it was run: as §1

S. typhimurium 7731 = assay type: cell-based, Salmonella typhimurium; conditions: 7731, 24 h
How it was run: as §1

S. pullorum 7913 = assay type: cell-based, Salmonella pullorum; conditions: 7913, 24 h
How it was run: as §1

P. aeruginosa 27853 = assay type: cell-based, Pseudomonas aeruginosa; conditions: 27853, 24 h
How it was run: as §1

E. coli K88 = conditions: for MIC: MHB, 24 h 37°C, 95% growth inhibition; for MBC: value in brackets, >99.9% of cells killed
How it was run: (§2)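 Peptides were serially diluted in 0.2% BSA and added to mid-logarithmic cells diluted in MHB to 0.5–1 × 10^6 CFU mL^–1. Assays followed an adapted NCCLS protocol.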

E. coli K99 = conditions: for MIC: MHB, 24 h 37°C, 95% growth inhibition; for MBC: value in brackets, >99.9% of cells killed
How it was run: as §2

Gram-negative bacteria [1] = conditions: for GM MIC: geometric mean of MICs, 9 Gram-negative strains (Table 2); for TI, Gram-negative bacteria: therapeutic index TI = MHC/GM MIC
How it was run: (§3)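 Broth microdilution adapted from NCCLS: mid-log bacteria diluted in MHB to 0.5–1 × 10^6 CFU mL^–1, mixed with peptides serially diluted in 0.2% BSA. After 24 h at 37°C, MIC taken as the lowest concentration inhibiting 95% of growth by absorbance at 492 nm. Assays repeated more than 3 times.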

Gram-positive bacteria [2] = conditions: for GM MIC: geometric mean of MICs, 7 Gram-positive strains (Table 2); for TI, Gram-positive bacteria: therapeutic index TI = MHC/GM MIC
How it was run: as §3

S. aureus 25923 = assay type: cell-based, Staphylococcus aureus; conditions: 25923, 24 h
How it was run: as §1

S. aureus 29213 [3] = assay type: cell-based, Staphylococcus aureus; conditions: 29213, 24 h
How it was run: as §1

S. epidermidis 12228 = assay type: cell-based, Staphylococcus epidermidis; conditions: 12228, 24 h
How it was run: as §1

MRSA 43300 = assay type: cell-based, methicillin-resistant S. aureus; conditions: 43300, 24 h
How it was run: as §1

B. subtilis 63501 = assay type: cell-based, Bacillus subtilis; conditions: 63501, 24 h
How it was run: as §1

E. faecalis 29212 = assay type: cell-based, Enterococcus faecalis; conditions: 29212, 24 h
How it was run: as §1

[4] = test system: Listeria monocytogenes CGMCC 1.1075; assay type: cell-based; conditions: CGMCC 1.1075, 24 h
How it was run: as §1

[5] = test system: all of the tested bacterial strains; assay: Geometric mean of MICs, all tested bacterial strains; assay type: cell-based; conditions: for GM, All: geometric mean of MICs across all tested strains; for TI, All: therapeutic index TI = MHC/GM MIC
How it was run: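 Mid-log bacteria at 0.5–1 × 10^6 CFU mL^–1 in MHB with peptides serially diluted in 0.2% BSA, 24 h at 37°C. MIC is the lowest concentration giving 95% growth inhibition by A492. MBC is the lowest giving >99.9% kill on agar subculture, and the GM is taken over all strains.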

E. coli ATCC 25922 = assay: Salt sensitivity assay (MIC); assay type: cell-based, Escherichia coli; conditions: for MIC, FeCl3: 4 μM FeCl3; for MIC, NH4Cl: 6 μM NH4Cl; for MIC, ZnCl2: 8 μM ZnCl2; for MIC, MgCl2: 1 mM MgCl2; for MIC, CaCl2: 2 mM CaCl2; for MIC, KCl: 4.5 mM KCl; for MIC, NaCl: 150 mM NaCl; for MIC, Control: no added salt, three independent assays
How it was run: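 The salt sensitivity of peptides was tested against E. coli ATCC 25922 using a modified NCCLS broth microdilution MIC method. Mid-log bacteria were diluted in MHB to 0.5–1 × 10^6 CFU mL^–1 and mixed in equal volumes with peptides serially diluted in 0.2% BSA in 96-well plates. Physiological salt was added where specified, and the assay was done three independent times.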

S. aureus 29213 [6] = assay: Salt sensitivity assay (MIC); assay type: cell-based, Staphylococcus aureus; conditions: for MIC, FeCl3: 4 μM FeCl3; for MIC, NH4Cl: 6 μM NH4Cl; for MIC, ZnCl2: 8 μM ZnCl2; for MIC, MgCl2: 1 mM MgCl2; for MIC, CaCl2: 2 mM CaCl2; for MIC, KCl: 4.5 mM KCl; for MIC, NaCl: 150 mM NaCl; for MIC, Control: no added salt, three independent assays
How it was run: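 MICs determined by broth microdilution in MHB with 0.5–1 × 10^6 CFU/mL, peptides serially diluted in 0.2% BSA, 24 h at 37°C. Medium supplemented with physiological salts (150 mM NaCl, 4.5 mM KCl, 6 μM NH4Cl, 8 μM ZnCl2, 1 mM MgCl2, 2mM CaCl2, 4 μM FeCl3). MIC = lowest concentration inhibiting 95% growth (A492).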

Gram-negative bacteria [7] = conditions: geometric mean of MBCs, 9 Gram-negative strains (Table 2)
Gram-positive bacteria [8] = conditions: geometric mean of MBCs, 7 Gram-positive strains (Table 2)

Work on RLRLRRLLL-NH2 [L9] yielded an MBC (E. coli 25922) of 32 µM, an MIC (E. coli 25922) of 16 µM and an MBC (E. coli O78) of 64 µM. The MIC (E. coli O78) was 32 µM, the MBC (E. coli UB1005) was 128 µM and the MIC (E. coli UB1005) was 64 µM. The MBC (S. typhimurium 14028) was 128 µM, the MIC (S. typhimurium 14028) was 64 µM and the MBC (S. typhimurium 7731) was 128 µM. For the same substance, the MIC (S. typhimurium 7731) was 64 µM, the MBC (S. pullorum 7913) was 64 µM and the MIC (S. pullorum 7913) was 32 µM. It also gave an MIC (P. aeruginosa 27853) of over 64 µM, an MIC (E. coli K88) of 16 µM and an MBC (E. coli K88) of 32 µM. For the same substance, the MIC (E. coli K99) was 16 µM, the MBC (E. coli K99) was 32 µM and the “GM MIC” value (Gram-negative bacteria [1]) was 37.33 µM. For the same substance, the “TI, Gram-negative bacteria” value (Gram-negative bacteria [1]) was 6.86, the “GM MIC” value (Gram-positive bacteria [2]) was 64.00 µM and the “TI, Gram-positive bacteria” value (Gram-positive bacteria [2]) was 4.00. It also gave an MIC (S. aureus 25923) of over 64 µM, an MIC (S. aureus 29213 [3]) of over 64 µM and an MIC (S. epidermidis 12228) of over 64 µM. For the same substance, the MIC (MRSA 43300) was over 64 µM, the MBC (B. subtilis 63501) was 16 µM and the MIC (B. subtilis 63501) was 8 µM. It also gave an MIC (E. faecalis 29212) of over 64 µM, an MBC [4] of 32 µM and an MIC [4] of 16 µM. For the same substance, the “GM, All” value [5] was 47.26 µM, the “TI, All” value [5] was 5.42 and the MIC, FeCl3 (E. coli ATCC 25922) was 16 µM. It also gave an MIC, NH4Cl (E. coli ATCC 25922) of 32 µM, an MIC, ZnCl2 (E. coli ATCC 25922) of 16 µM and an MIC, MgCl2 (E. coli ATCC 25922) of 32 µM. It also gave an MIC, CaCl2 (E. coli ATCC 25922) of over 64 µM, an MIC, KCl (E. coli ATCC 25922) of 16 µM and an MIC, NaCl (E. coli ATCC 25922) of over 64 µM. For the same substance, the MIC, Control (E. coli ATCC 25922) was 16 µM, the MIC, FeCl3 (S. aureus 29213 [6]) was over 64 µM and the MIC, NH4Cl (S. aureus 29213 [6]) was over 64 µM. It also gave an MIC, ZnCl2 (S. aureus 29213 [6]) of over 64 µM, an MIC, MgCl2 (S. aureus 29213 [6]) of over 64 µM and an MIC, CaCl2 (S. aureus 29213 [6]) of over 64 µM. It also gave an MIC, KCl (S. aureus 29213 [6]) of over 64 µM, an MIC, NaCl (S. aureus 29213 [6]) of over 64 µM and an MIC, Control (S. aureus 29213 [6]) of over 64 µM. The “GM MBC” value (Gram-negative bacteria [7]) was 69.12 µM and the “GM MBC” value (Gram-positive bacteria [8]) was 78.02 µM.

Substance RRLLLLRRL-NH2 [L7] has an MIC (E. coli 25922) of over 64 µM, an MBC (E. coli O78) of 128 µM and an MIC (E. coli O78) of 64 µM. It also gave an MIC (E. coli UB1005) of over 64 µM, an MIC (S. typhimurium 14028) of over 64 µM and an MIC (S. typhimurium 7731) of over 64 µM. The MIC (S. pullorum 7913) was over 64 µM, the MIC (P. aeruginosa 27853) was over 64 µM and the MIC (E. coli K88) was 32 µM. For the same substance, the MBC (E. coli K88) was 64 µM, the MIC (E. coli K99) was 64 µM and the MBC (E. coli K99) was 128 µM. For the same substance, the “GM MIC” value (Gram-negative bacteria [1]) was 94.06 µM, the “TI, Gram-negative bacteria” value (Gram-negative bacteria [1]) was 2.72 and the “GM MIC” value (Gram-positive bacteria [2]) was 64.00 µM. For the same substance, the “TI, Gram-positive bacteria” value (Gram-positive bacteria [2]) was 4.00, the MIC (S. aureus 25923) was over 64 µM and the MIC (S. aureus 29213 [3]) was over 64 µM. The MIC (S. epidermidis 12228) was over 64 µM, the MIC (MRSA 43300) was over 64 µM and the MBC (B. subtilis 63501) was 16 µM. It also gave an MIC (B. subtilis 63501) of 8 µM, an MIC (E. faecalis 29212) of over 64 µM and an MBC [4] of 32 µM. For the same substance, the MIC [4] was 16 µM, the “GM, All” value [5] was 79.48 µM and the “TI, All” value [5] was 3.22. For the same substance, the MIC, FeCl3 (E. coli ATCC 25922) was over 64 µM, the MIC, NH4Cl (E. coli ATCC 25922) was over 64 µM and the MIC, ZnCl2 (E. coli ATCC 25922) was over 64 µM. The MIC, MgCl2 (E. coli ATCC 25922) was over 64 µM, the MIC, CaCl2 (E. coli ATCC 25922) was over 64 µM and the MIC, KCl (E. coli ATCC 25922) was over 64 µM. It also gave an MIC, NaCl (E. coli ATCC 25922) of over 64 µM, an MIC, Control (E. coli ATCC 25922) of over 64 µM and an MIC, FeCl3 (S. aureus 29213 [6]) of over 64 µM. For the same substance, the MIC, NH4Cl (S. aureus 29213 [6]) was over 64 µM, the MIC, ZnCl2 (S. aureus 29213 [6]) was over 64 µM and the MIC, MgCl2 (S. aureus 29213 [6]) was over 64 µM. It also gave an MIC, CaCl2 (S. aureus 29213 [6]) of over 64 µM, an MIC, KCl (S. aureus 29213 [6]) of over 64 µM and an MIC, NaCl (S. aureus 29213 [6]) of over 64 µM. For the same substance, the MIC, Control (S. aureus 29213 [6]) was over 64 µM, the “GM MBC” value (Gram-negative bacteria [7]) was 118.51 µM and the “GM MBC” value (Gram-positive bacteria [8]) was 78.02 µM.
